Laboratory results taken from patent publication US20150315188A1, “COMPOUNDS AND METHODS FOR TREATMENT OF HYPERTENSION” (MEDIVATION TECHNOLOGIES, INC., priority 2012, published 2015).

What was measured:
[1] = target: T1, Human adrenergic α1B receptor (Homo sapiens, UniProt P35368); test: β-Arrestin GPCR functional assay, adrenergic α1B (Protocol B); format: cell-based; details: for IC50: β-arrestin, antagonist vs nor-epinephrine EC80
T1 sequence (P35368 1-520): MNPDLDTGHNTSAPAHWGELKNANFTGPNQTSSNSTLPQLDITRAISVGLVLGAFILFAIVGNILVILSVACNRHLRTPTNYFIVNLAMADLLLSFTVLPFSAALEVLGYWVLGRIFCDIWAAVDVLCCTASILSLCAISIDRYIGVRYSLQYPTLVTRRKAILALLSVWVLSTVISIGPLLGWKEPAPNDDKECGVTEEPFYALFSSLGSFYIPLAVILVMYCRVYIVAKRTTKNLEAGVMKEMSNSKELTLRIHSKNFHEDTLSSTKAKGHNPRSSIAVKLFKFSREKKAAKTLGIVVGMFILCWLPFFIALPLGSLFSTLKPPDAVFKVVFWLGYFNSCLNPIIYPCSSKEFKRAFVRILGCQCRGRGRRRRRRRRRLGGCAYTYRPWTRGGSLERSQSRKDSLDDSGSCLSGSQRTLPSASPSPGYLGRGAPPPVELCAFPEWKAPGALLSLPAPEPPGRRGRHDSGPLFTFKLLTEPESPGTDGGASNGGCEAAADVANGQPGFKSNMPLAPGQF
Description: To evaluate the activity of compounds in β-Arrestin GPCR functional assays, recombinant CHO cell line (DiscoveRX), over expressed with human adrenergic α1B receptor were used. The experiment was done with a kit of DiscoveRX as per recommended protocol of the supplier. Cells were harvested from culture flask using cell dissociation solution (CDS) and plated at a density of 12,000 cells/well in CP reagent (supplied with the kit) in a half area 96-well white polystyrene plate. After 24 h incubation at 37° C., compounds at various concentrations in 1% (final) DMSO were charged to the cells for 30 min at 37° C. Active nor-epinephrine (-NE) at its EC80 concentrations (50 nM) were then added to the cells and incubated for another 90 min at 37° C. Detection mix was prepared by mixing Path Hunter cell assay buffer, Emerald II solution and Galactone star solution in a ratio of 19:5:1 and incubated with the cells for 60 min at RT in the dark. The reading was taken in Envision at luminescence mode. Biochemical assay results are presented as the percent Inhibition in Table B2a, or IC50 values in Table B2b.

[2] = target: T1, Human adrenergic α1B receptor; test: Radioligand binding, adrenergic α1B (Protocol Group B); design: purchased Milipore (Millipore); details: Protocol Group B; for Percentage inhibition of ligand binding, Adrenergic α1B (0.1 μM) / inhibition at 0.1 µM: 0.1 μM compound; for Percentage inhibition of ligand binding, Adrenergic α1B (0.3 μM) / inhibition at 0.3 µM: 0.3 μM compound; for Ki: estimated Ki; for inhibition at 0.1 µM: read-out: Percentage inhibition of ligand binding, Adrenergic α1B (0.1 μM); for inhibition at 0.3 µM: read-out: Percentage inhibition of ligand binding, Adrenergic α1B (0.3 μM)
How it was run: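 Recombinant human α1B membranes incubated with test compound and 0.3 nM [3H]prazosin, 60 min at 25 °C, in 50 mM Tris-HCl pH 7.4, 10 mM MgCl2, 1 mM EDTA; nonspecific binding with 10 μM prazosin. Filter-bound radioactivity counted; values are % inhibition of specific binding or estimated Ki.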

| SMILES | IC50 [1] [nM] | Percentage inhibition of ligand binding, Adrenergic α1B (0.1 μM) [2] [%] | Percentage inhibition of ligand binding, Adrenergic α1B (0.3 μM) [2] [%] | Ki [2] [nM] | inhibition at 0.1 µM [2] [%] | inhibition at 0.3 µM [2] [%] | Percentage inhibition, Adrenergic α1B ([1]; 0.1 μM compound, nor-epinephrine at EC80 (50 nM)) [%] | inhibition at 0.3 µM ([1]; 0.3 μM compound, nor-epinephrine at EC80 (50 nM), read-out: Percentage inhibition, Adrenergic α1B) [%] |
| --- | --- | --- | --- | --- | --- | --- | --- | --- |
| CC(O)(Cn1c2c(c3cc(F)ccc31)C1CCCN1CC2)c1ccncc1 (single isomer, unassigned) [31b] | 782 | 30 | 50 | 134 | – | – | – | – |
| Cc1ccc2c(c1)c1c(n2CC(OC(=O)N2CCCC2)c2ccncc2)CCN(C)C1 (single isomer, unassigned) [4b] | 662 | – | – | 269 | – | – | – | – |
| Cc1cc2c3c(n(CC(C)(O)c4ccncc4)c2cc1Cl)CCN1CCCC31 (single isomer, unassigned) [50b] | 54 | 80 | 93 | 6.9 | – | – | – | – |
| Cc1cc(F)c2c(c1)c1c(n2CC(O)c2ccncc2)CCN2CCCC12 (single isomer, unassigned) [137a] | 114 | – | – | 15 | 58 | 85 | – | – |
| Cc1ccc2c(c1)c1c(n2C[C@@H](OC2CCCC2)c2ccncc2)CCN2CCC[C@H]12 [compound 82, (11cR)-7-[(25)-2-(cyclopentoxy)-2-(4-pyridyl)ethyl]-10-methyl-1,2,3,5,6,11c-hexahydroindolizino[7,8-b]indole] | 382 | – | – | 32.7 | 56 | 81 | – | – |
| OC(Cn1c2c(c3cc(Cl)cc(F)c31)C1CCCN1CC2)c1ccncc1 (single isomer, unassigned) [135b] | 102 | 64 | 81 | – | – | – | – | – |
| Cc1ccc2c(c1)c1c(n2CC(O)c2ccncc2)CCN2CCCC12 (single isomer, unassigned) [Compound No. 178d] | – | 99 | – | – | 94 | – | – | – |
| Cc1ccc2c(c1)c1c(n2CC(C)(O)c2ccnc(F)c2)CCN2CCCC12 (single isomer, unassigned) [48b] | 123 | 71 | 84 | 25.9 | – | – | – | – |
| Cc1cc(F)cc2c3c(n(CC(O)c4ccncc4)c12)CCN1CCCC31 (single isomer, unassigned) [136a] | – | – | – | 14.7 | 31 | 70 | – | – |
| Cc1cc(F)c2c(c1)c1c(n2CC(C)(O)c2cccnc2)CCN2CCCC12 (centres unmarked) [Compound No. 79a] | – | 47 | 79 | 42.7 | – | – | – | – |
| CCCOC(Cn1c2c(c3cc(C)ccc31)CN(C)CC2)c1ccncc1 (single isomer, unassigned) [42a] | 636 | – | 70 | 54 | 44 | – | – | – |
| Cc1ccc2c(c1)c1c(n2CC(O)c2ccncc2F)CCN2CCCC12 (single isomer, unassigned) [14a] | 99 | – | – | 18.2 | 70 | 87 | 49 | 76 |
| CC(O)(Cn1c2c(c3cc(F)ccc31)C1CCCN1CC2)c1ccncc1 (single isomer, unassigned) [31a] | 982 | – | – | 145 | 24 | 47 | – | – |
